“And” between values parts separate entries of the source, which are not always exact repeats. Identical values can stand only once. “Also recorded” adds a separate entry of the source. Where only a bound is given, the exact number is not on record here.

This is an account of results in publication PMC8294803, “A Roadmap to the Structure-Related Metabolism Pathways of Per- and Polyfluoroalkyl Substances in the Early Life Stages of Zebrafish (Danio rerio)” (Environmental Health Perspectives, 2021).

Data set [1] deals with zebrafish embryos. Nature of the data set: Time courses of carboxamides and PFCA metabolites in zebrafish embryos/larvae. The note with it: zebrafish exposed to 5 μM of 19, 31 and 38 separately, N=20, three replicates. The data set is classed as in vivo, Danio rerio. On the procedure: Time courses of carboxamides (19, 31, and 38) and corresponding perfluoroalkyl carboxylic acid (PFCA) metabolites in zebrafish larvae were investigated. The procedure of zebrafish embryo collection was described above. Twenty embryos were randomly assigned into each well of a 24-well plate. Subsequently, 15 wells were dosed with 3mL of each chemical ( 5μM ). […] The exposure medium was prepared fresh and changed each day, and dead larvae were discarded. For each chemical, 3 wells were harvested every 24 h, and the surviving larvae were transferred to three different tubes for further PFAS extraction ( N=12–18 ).

Data set [2] has as its target liver fatty acid binding protein (L-FABP). More on the design: method as in Yang et al. 2020. The note with it: ref Yang et al. 2020; read-out: Kd (μM), L-FABP binding affinity; cited from earlier work.
Data set [3] concerns zebrafish larvae. Nature of the data set: Nontargeted analysis of PFAS metabolites in zebrafish larvae (high-resolution MS). The note with it: for Metabolites / hydrolysis products in zebrafish larvae: in vivo, nontargeted analysis. On the procedure:
(§1) Zebrafish embryos were collected immediately after spawning, within 1 h, and subsequently transferred to 24-well plates with 1mL of facility water ( 0.036g sea salt, 0.15g sodium bicarbonate in 2L of reverse osmosis water). […] Three well replicates on the same plate were conducted for each concentration of individual chemical. […] Seven batches of experiments were performed to test all 74 PFAS. DMSO controls were incorporated in each batch of exposure experiments. Three replicates were performed for each treatment group, and 20 embryos were used for each replicate. […] For daily replenishment, 2.5mL of old exposure medium were replaced with freshly prepared medium every 24 h from 24 to 96 h post fertilization (hpf). Hatched or dead embryo numbers were recorded every 24 hpf, after which dead embryos were discarded from the growth media. Dead embryos or unhatched embryos were not used for PFAS measurement because the metabolism of PFAS might have been impacted. Zebrafish larvae collection occurred at 120 hpf. First, the larvae were anesthetized by cooling the plate in ice water (0–4°C) for ∼20 min . Then 8–15 larvae in each well were transferred into 1.5-mL tubes. Exposure media was carefully removed, and then the larvae were weighed (wet weight) after blotting excess water with a paper towel. […] Samples were stored at −80 °C until further chemical analysis was performed. Survival rate and hatching rate were calculated by summarizing all the documented data from the whole treatment duration. […] The exposure experiment of PFOSA was repeated using the same procedure as described above.
(§2) Each sample was spiked with 2μL of 0.2μg/mL mass-labeled PFAS mixture. Following this, 500μL of dichloromethane/methanol (2:1, vol/vol) was added to each sample for PFAS extraction. Larvae were then homogenized via ultrasonic probe, followed by 30 min of shaking and 30 min of sonication. Each sample was centrifuged at 14,000×g for 5 min, after which the supernatant was transferred to new tubes. Extraction was repeated once and the two supernatants were combined, evaporated under nitrogen flow, and reconstituted in 200μL of methanol for MS analysis.
(§3) Three microliters of each zebrafish extract was applied to a C18 column ( 1.5μm; 2.1mm×50mm; Thermo Scientific) and analyzed using a Vanquish ultra-HPLC system (Thermo Fisher Scientific) coupled to a Q Exactive high-resolution mass spectrometer (Thermo Fisher Scientific). The sampler and column compartments were maintained at 4°C and 40°C, respectively. The aqueous mobile phase solution (A) consisted of water, whereas the organic mobile phase solution (B) consisted of acetonitrile. […] MS data was acquired in full scan mode (100–1000 m/z, 70,000 mass resolution, 3×10^6 maximum ions collected per 100 ms), and tandem MS (MS/MS) data was recorded by all-ion fragmentation (AIF) mode. Negative and positive ion modes were carried out simultaneously at a 10-min method duration. […] An overview of the analyses conducted on the various PFAS is available in Table S2.
Nontargeted data analysis was accomplished with R scripts that are available on Github (https://github.com/huiUofT/PFASmetabolite). […] The peak features were matched across samples with a mass tolerance of 2.5 ppm and a RT window of 20 s, after RT adjustment. The ratio of abundances of each feature in treatment groups relative to the control group (DMSO) was calculated. The p -values of the difference between two groups were determined by student’s t -tests.

Data set [4] has as its system zebrafish embryos. The settings on record: for pericardial oedemata, Mean / spinal curvature, Mean / tail dysplasia, Mean: 5μM through 120 hpf, malformation rate; for Mortality (%): 5 µM, exposure through 120 hpf.
Data set [5] relates to zebrafish larvae. Nature of the data set: Bioconcentration factors (BCF) of PFAS in zebrafish larvae. The settings on record: for BCF: exposure concentration not given. The protocol:
as §1, §2, §3
GraphPad Prism (version 7.0.4; GraphPad Software) and R studio (version 1.1.456; R Studio Inc.) software was used, and an ANOVA with Dunnett tests was employed to evaluate the statistical significance of the percentage hatched and mortality rate. Exponential regressions were used to determine the relationships between bioconcentration factor (BCF) and binding affinities ( Kd ) to L-FABP.

Data set [6] concerns the target T1, recombinant human liver carboxylesterase 1 (hCES1) (Homo sapiens, UniProt P23141).
T1 construct: purchased Sigma Aldrich
T1 sequence (P23141 18-567): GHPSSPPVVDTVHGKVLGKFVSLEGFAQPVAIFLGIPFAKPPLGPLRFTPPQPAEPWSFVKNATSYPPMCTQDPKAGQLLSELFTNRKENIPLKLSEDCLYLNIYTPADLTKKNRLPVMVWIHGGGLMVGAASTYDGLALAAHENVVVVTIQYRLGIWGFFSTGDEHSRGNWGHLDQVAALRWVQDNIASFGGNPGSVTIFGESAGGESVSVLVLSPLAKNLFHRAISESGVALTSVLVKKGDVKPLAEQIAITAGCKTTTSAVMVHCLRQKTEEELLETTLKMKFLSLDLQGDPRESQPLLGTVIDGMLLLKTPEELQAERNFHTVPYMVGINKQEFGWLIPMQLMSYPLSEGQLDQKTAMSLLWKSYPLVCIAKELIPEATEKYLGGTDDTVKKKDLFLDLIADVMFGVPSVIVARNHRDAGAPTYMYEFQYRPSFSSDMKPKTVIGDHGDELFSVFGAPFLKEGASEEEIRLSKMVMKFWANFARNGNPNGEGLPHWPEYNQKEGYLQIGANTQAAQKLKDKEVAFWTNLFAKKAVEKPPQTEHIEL
Nature of the data set: Hydrolysis of PFAS by recombinant hCES1. The settings on record: for percentage of polyfluoroalkyl carboxamide 19, hCES1: 100 μg/L hCES1; for percentage of polyfluoroalkyl carboxamide 19, hCES1 / percentage of polyfluoroalkyl carboxamide 19, Control: 37 °C, 1 hour, N=3; for percentage of polyfluoroalkyl carboxamide 19, Control: vehicle control without hCES1; for Parent PFAS, hCES1 (%) / Parent PFAS, Control (%): 10 μM PFAS, single replicates; for Parent PFAS, hCES1 (%): 100 μg/L hCES1, phosphate buffer 37 °C 1 hour, axis %Control; for Parent PFAS, Control (%): without hCES1, phosphate buffer 37 °C 1 hour; for Concentration of hydrolysis product: from 10μM of parent, 100μg/L hCES1, 37°C. Format: in vitro ADME. The protocol: Because recombinant zebrafish CES is not available, we decided to use hCES1 to evaluate the structure-related hydrolysis of PFAS. […] In vitro enzymatic activity experiments were carried out for 1 h in 1.5-mL tubes with 100μL phosphate buffer ( 137 mM sodium chloride, 10 mM phosphate buffer, 2.7 mM potassium chloride; pH 7.4) at 37°C with shaking. Reaction mixtures contained different concentrations of PFAS (1, 10, and 50μM ) and 100μg/L hCES1. […] To stop the hydrolysis reaction, four times the volume of ice-cold methanol was added. The hCES1 protein was precipitated out by centrifugation ( 14,000×g , 10 min). The supernatant was transferred to a new tube and analyzed via MS for the analysis of parent compounds and suspected metabolites (i.e., carboxylates).

Regarding `O=C(O)C(F)(F)C(F)(F)C(F)(F)C(F)F` [1H-PFPeA], the “Peak intensity in zebrafish” value was 41617598 and 43836041 and 44656574 in the data set on zebrafish embryos [1] (24 hpf); 60989972 and 64452114 and 58767796 in the data set on zebrafish embryos [1] (48 hpf); 101000000 and 97804534 and 98584848 with zebrafish embryos [1] (72 hpf); 168000000 and 176000000 and 174000000 in the data set on zebrafish embryos [1] (96 hpf); 221000000 and 206000000 and 215000000 with zebrafish embryos [1] (120 hpf).

The Kd is the concentration at which binding is half-saturated. Consider `O=C(O)C(F)(F)C(F)(F)C(F)F` [compound 4, 4H-Perfluorobutanoic acid], for which the Kd in data set [2] was 352 µM. The “Peak intensity of PFCA in zebrafish embryos directly exposed to the PFCA” value in the data set with zebrafish larvae [3] (5μM through 120 hpf, single replicates, listed as 1H-PFBA) is 18758096 and 21668103 and 32644288. Moreover, in the data set with zebrafish embryos [4], the “pericardial oedemata, Mean” value turned out to be 1.11%; the “spinal curvature, Mean” value was 2.22%; the “tail dysplasia, Mean” value came out at 0.00%; the “Mortality (%)” value came out at 0%. The “Concentration in zebrafish larvae directly exposed” value in the data set with zebrafish larvae [5] (5μM of the PFCA itself) stood at 7.0 ± 1.3 µM. In the data set on zebrafish larvae [5] (zebrafish larvae, 0.5 µM exposure, 120 hpf, three replicates), the “BCF 0.5µM” value is given as 3.397 L/kg. Moreover, the “BCF 5µM” value in the data set on zebrafish larvae [5] (zebrafish larvae, 5 µM exposure, 120 hpf, three replicates) was 1.9 ± 0.4 L/kg.

`NC(=O)C(F)(F)C(F)(F)C(F)(F)C(F)(F)F` [compound 19, Nonafluoropentanamide]: in data set [6] (1 μM 19), the “percentage of polyfluoroalkyl carboxamide 19, hCES1” value (“percentage … hCES1” for short) turned out to be 0.00%; the “percentage of polyfluoroalkyl carboxamide 19, Control” value (“percentage … Control” for short) was 114.95% and 85.05%. Also, in data set [6] (10 μM 19), the “percentage … hCES1” value was determined as 0.00%; the “percentage … Control” value was 100.46% and 90.28% and 109.26%. In addition, the “Parent hydrolyzed by hCES1” value in data set [6] (10μM PFAS, 100μg/L hCES1) is recorded as “completely metabolized”. Further, in data set [6], the “Parent PFAS, hCES1 (%)” value is 0.00%; the “Parent PFAS, Control (%)” value is 100.46% and 90.28% and 109.26%. In addition, in data set [6] (50 μM 19), the “percentage … hCES1” value was 62.27% and 65.75% and 66.90%; the “percentage … Control” value was 96.65% and 95.06% and 108.30%. Further, in the data set with zebrafish larvae [3], the “Metabolites / hydrolysis products in zebrafish larvae” value (shortened to “Metabolites / hydrolysis products”) is “high abundances of metabolized carboxylates were detected”. In the data set with zebrafish embryos [4], the “pericardial oedemata, Mean” value is given as 0.00%; the “spinal curvature, Mean” value came out at 0.00%; the “tail dysplasia, Mean” value is recorded as 0.00%; the “Mortality (%)” value is recorded as 1.1%. This compound registered a BCF in the data set with zebrafish larvae [5] (zebrafish larvae) of less than 10 L/kg.

Turning to `NC(=O)C(F)(F)C(F)(F)C(F)(F)F` [compound 31, Heptafluorobutyramide], in data set [6], the “Parent PFAS, hCES1 (%)” value is 88.80% and 125.28% and 71.56%; the “Parent PFAS, Control (%)” value is 98.24% and 100.70% and 101.05%. In addition, in the data set with zebrafish larvae [3], the “Metabolites / hydrolysis products” value is “high abundances of metabolized carboxylates were detected”. Besides, in the data set on zebrafish embryos [4], the “pericardial oedemata, Mean” value came out at 0.00%; the “spinal curvature, Mean” value is given as 0.00%; the “tail dysplasia, Mean” value was determined as 0.00%; the “Mortality (%)” value amounted to 2.2%. The BCF in the data set on zebrafish larvae [5] (zebrafish larvae) was less than 10 L/kg.

In the case of `COC(=O)C(F)(F)C(F)(F)C(F)(F)C(F)(F)C(F)(F)F` [compound 36, Methyl perfluorohexanoate], in data set [6], the “Concentration of hydrolysis product” value is reported as “not detected”. For the same compound, the “Metabolites / hydrolysis products” value with zebrafish larvae [3] is given as “metabolites were not detected”. Further, in the data set with zebrafish embryos [4], the “pericardial oedemata, Mean” value is given as 1.11%; the “spinal curvature, Mean” value worked out at 0.00%; the “tail dysplasia, Mean” value was 0.00%; the “Mortality (%)” value is listed as 4.4%.

With `COC(=O)C(F)(F)C(F)(F)C(F)(F)F` [compound 47, Methyl heptafluorobutyrate], the “Concentration of hydrolysis product” value in data set [6] is reported as “not detected”. For the same compound, in the data set with zebrafish larvae [3], the “Metabolites / hydrolysis products” value is on record as “metabolites were not detected”. In the data set on zebrafish embryos [4], the “pericardial oedemata, Mean” value was determined as 2.22%; the “spinal curvature, Mean” value amounted to 1.11%; the “tail dysplasia, Mean” value came out at 0.00%; the “Mortality (%)” value is 0%.

In the case of `NC(=O)C(F)(F)C(F)(F)C(F)(F)C(F)(F)C(N)=O` [compound 58, Octafluoroadipamide], in data set [6], the “Parent PFAS, hCES1 (%)” value was 97.41% and 90.44% and 135.26%; the “Parent PFAS, Control (%)” value was 83.59% and 76.79% and 139.62%; the “Concentration of hydrolysis product” value is recorded as “not detected”. Moreover, the “Metabolites / hydrolysis products” value in the data set on zebrafish larvae [3] is on record as “metabolites were not detected; also recorded: no metabolite was detected”. Further, in the data set with zebrafish embryos [4], the “pericardial oedemata, Mean” value was determined as 1.11%; the “spinal curvature, Mean” value is reported as 1.11%; the “tail dysplasia, Mean” value came to 0.00%; the “Mortality (%)” value came out at 6.7%. Moreover, in the data set with zebrafish larvae [5] (zebrafish larvae), the BCF is recorded as less than 10 L/kg.
